Entries after “also recorded” stand apart in the source; their conditions may differ. Non-standard residues stand in square brackets, D forms with d. Residues, ends and D or L forms follow the SMILES beside them. No end group written: not given here.
Legend:
[1] = test system: P815S (HBsAg transfectant) target cells; test: HBsAg-specific CTL response of immunized mice, 51Cr-release cytotoxicity assay; assay type: in vivo, BALB/c mice; conditions: for % Specific Lysis: s.c. in PBS; for Ag-specific CTL response (in words): two or three s.c. injections at 21 day intervals, no added adjuvant
Experimental: Groups of six to eight BALB/c mice were given bilateral s.c. injections in the inguinal area with (100 al each side) of a PBS solution containing 50-100 μg of the peptides. Booster injections were given s.c. in the inguinal region at 21-day intervals. Sera for Ab analysis were obtained by retro-orbital bleeds of mice under CO2 narcosis.
Three weeks after secondary) (2° immunization and two weeks after tertiary)(3° immunization, two to three mice from each experimental group were sacrificed by cervical dislocation and their spleens removed aseptically. Pooled splenic single-cell suspensions were prepared in RPMI-1640 medium (Sigma, St. Louis, Mo.) containing 10% FBS (Hyclone, Salt Lake City, Utah) and the following supplements: 10 mM HEPES buffer, 50 μM 2-ME, 2 mM L-glutamine, 50 μg/ml gentamicin sulfate, 100 Um′ penicillin, and 50 μg/ml streptomycin (all supplements from Sigma). This supplemented complete medium is designated RP10-SC. For culture, 75×10^6 pooled spleen cells in 5 ml of RP10-SC were pipetted into a 25 cm^2 T-flask (Corning). Next, 5 ml of RP 10-SC containing 150 nM of synthetic, L^d MHC class I-restricted peptide, […] (SEQ ID NO:12) were added to the flask. The flasks were incubated undisturbed in an upright position at 37° C. in 5% CO2. After 4 days of incubation, the cells were recovered from the T-flasks, washed once by centrifugation in fresh RP10-SC, resuspended in 5 ml RP10-SC, counted, and adjusted to 5×10^6 viable cells/ml.
The specific cell target used for measuring CTL activity was P815S, a transfectant cell line of P815 (H-2^d) expressing the HBsAg (14). P815S was grown in RP10-SC medium containing 400 μg/ml geneticin disulfate (G418, Sigma). The parental H-2^d mastocytoma cell line, P815 (ATTC #TIB64) grown in RP10-SC medium, was used as a non-specific target for CTL assays to measure % non-specific lysis.
The target cells, either P815S or P815, were washed 2 times in RP10-SC. For labeling, 5×10^6 target cells were mixed with 250 μCi ^51Cr-sodium chromate[400-1200 Ci (14.8-44.4 TBq)]/[…]; NEN Dupont, Boston, Mass.) in a 1.0 ml volume in a 50 ml conical tube and incubated in a 37° C. water bath for 90 mins. After incubation, the labeled cells were washed 3 times by centrifugation using 15 ml volumes of fresh RP10-SC and allowed to stand at room temperature for 30 mins. The pelleted cells were resuspended in RP10-SC at 1×10^6 cells/ml.
The recovered splenic effector cells at 5×10^6 cells/ml were serially diluted in triplicate in wells of round-bottom 96 well plates (Corning, 25850) in a total volume of 100 al/well and using RP10-SC as the diluent. Next, 100 μl volumes of ^51Cr-labeled targets, P815S or P815, at 1×10^6 cells/ml were added to the wells. Maximum release (MR) wells contained 100 al of target cells and 100 al of 2% (v/v) Tween 20 while spontaneous release (SR) wells contained labeled cells in medium alone. Effector-to-target ratios of 50:1, 25:1, 12.5:1, and 6.25:1 were routinely employed. The plates were centrifuged at 400×g and incubated at 37° C. in 5% CO2 for 4 hrs. After incubation, the supernatant fractions in the wells were collected using a Skatron Supernatant Collection System (Skatron Instruments, Sterlin, Va.). The amount of ^51Cr radioactivity in the supernatant fractions was measured using a Wallac 1470 Wizard gamma counter (Turku, Finland).

[2] = test system: human PMNs; test: MPO release from human PMNs; assay type: cell-based; conditions: for EC50: 50% maximum release of myeloperoxidase; for pD2 ± SE: −log EC50 (M), mean ± SE, n=3
Experimental: (§1) Statistical analysis of the values obtained from pharmacologic assays was performed using one-way analysis of variance (ANOVA).

[3] = test system: human umbilical artery; test: Smooth muscle contraction of human umbilical artery; assay type: cell-based; conditions: for EC50: concentration resulting in 50% maximum contraction; for agonist behaviour relative to natural C5a (in words): umbilical artery contraction and MPO release assays; for pD2 ± SE: −log EC50 (M), mean ± SE, n=3
Experimental: as §1

[4] = test system: MUC1 peptide; test: MUC1 specific antibody isotype titers in immunized mice (ELISA); assay type: in vivo, C57BL6 mice
Experimental: Preimmune sera were obtained from mice, which were subsequently immunized intraperitoneally with 100 μg of the indicated peptide with RIBI adjuvant (MPL+TDM+CWS) (Sigma Immunochemicals). Animals were boosted twice at two week intervals using the same injection procedure. Sera were obtained following three immunizations (at 6 weeks).
Anti-peptide antibody isotype titers were determined by enzyme-linked immunosorbent assay (ELISA) carried out in 96-well microtiter plates. The plates were coated with 100 μg/ml of appropriate peptide in PBS, pH 7.4, and incubated overnight. The wells were blocked with 5% dry milk in PBS pH 7.4 for at least two hours. Anti-peptide titers were determined using serial dilutions of sera as described above. After the plates were washed 4 times, 50 μl of a 1:100 dilution of rabbit anti-mouse IgA, IgG1, IgG2a, IgG2b, IgG3 and IgM (Zymed) was added to each well and incubated at 25° C. for 1 hour. The plates were washed 4 times with washing buffer and 50 μl of 1:500 goat anti-rabbit conjugated to […] (Zymed) was incubated at 37° C. for 1 hour. Again, the plates were washed 4 times with washing buffer and bound enzyme was detected by the addition of 50 μl 1 mg/ml p-nitrophenyl phosphate (Sigma) in 10% diethanolamine (Sigma) pH 9.4. The reaction was stopped by the addition of 50 μl of 0.5 M sodium hydroxide and absorbance values (A405) were determined on Titertek Multiskan (Flow Laboratories, Irvine, Scotland).
The following experiment was performed in order to compare the potency of the molecular adjuvant of the present invention with a widely used method for enhancing the immune response to peptide epitopes. The objective was a direct comparison of the response to a construct of MUC1 epitope-C5a agonist and the same epitope conjugated to keyhole limpet hemocyanine (KLH) in mice.

[5] = Effector:Target 6.25:1, boost day 21, spleen cells day 42
[6] = Effector:Target 12.5:1, boost day 21, spleen cells day 42
[7] = Effector:Target 25:1, boost day 21, spleen cells day 42
[8] = Effector:Target 50:1, boost day 21, spleen cells day 42, restimulated 4 days with S28-39
[9] = mean titer of responders, sera screened against MUC1 peptide, five mice

Compound: IPQSLDSWWTSL [HBsAg L^d MHC class I-restricted peptide S28-39, reference compound]
- % Specific Lysis [1, 5]: 3%
- % Specific Lysis [1, 6]: 3%
- % Specific Lysis [1, 7]: 5%
- % Specific Lysis [1, 8]: 7%

Compound: CC[C@H](C)[C@H](N)C(=O)N1CCC[C@H]1C(=O)N[C@@H](CCC(N)=O)C(=O)N[C@@H](CO)C(=O)N[C@@H](CC(C)C)C(=O)N[C@@H](CC(=O)O)C(=O)N[C@@H](CO)C(=O)N[C@@H](Cc1c[nH]c2ccccc12)C(=O)N[C@@H](Cc1c[nH]c2ccccc12)C(=O)N[C@H](C(=O)N[C@@H](CO)C(=O)N[C@@H](CC(C)C)C(=O)N[C@@H](CCCNC(=N)N)C(=O)N[C@H](C(=O)N[C@@H](CCCNC(=N)N)C(=O)N[C@@H](CCCNC(=N)N)C(=O)N[C@@H](Cc1ccc(O)cc1)C(=O)N[C@@H](CO)C(=O)N[C@@H](Cc1ccccc1)C(=O)N[C@@H](CCCCN)C(=O)N1CCC[C@H]1C(=O)N[C@@H](CCSC)C(=O)N1CCC[C@H]1C(=O)N[C@@H](CC(C)C)C(=O)N[C@H](C)C(=O)N[C@@H](CCCNC(=N)N)C(=O)O)C(C)C)[C@@H](C)O (H-IPQSLDSWWTSLRVRRYSFKPMPL[dA]R-OH)
- Ag-specific CTL response (in words) [1]: specific CTL response that was significantly above background levels; also recorded: robust CTL activity
- EC50 [2]: 2150 nM
- pD2 ± SE [2]: 5.61 ± 0.19
- EC50 [3]: 180 nM
- agonist behaviour relative to natural C5a (in words) [3]: full agonists
- pD2 ± SE [3]: 6.67 ± 0.22

Compound: YKQGGFLGL-KLH (YKQGGFLGL-{KLH}; also: conjugated to KLH) [reference compound]
- Ab titer IgA [4, 9]: 0
- Ab titer IgG1 [4, 9]: 100
- Ab titer IgG2a [4, 9]: 0
- Ab titer IgG2b [4, 9]: 0
- Ab titer IgG3 [4, 9]: 0
- Ab titer IgM [4, 9]: 5010
- number of responders IgG1 ([4]; responders / mice immunized): (2/5)
- number of responders IgM ([4]; responders / mice immunized): (4/5)

Compound: CC[C@H](C)[C@H](N)C(=O)N1CCC[C@H]1C(=O)N[C@@H](CCC(N)=O)C(=O)N[C@@H](CO)C(=O)N[C@@H](CC(C)C)C(=O)N[C@@H](CC(=O)O)C(=O)N[C@@H](CO)C(=O)N[C@@H](Cc1c[nH]c2ccccc12)C(=O)N[C@@H](Cc1c[nH]c2ccccc12)C(=O)N[C@H](C(=O)N[C@@H](CO)C(=O)N[C@@H](CC(C)C)C(=O)N[C@@H](Cc1ccc(O)cc1)C(=O)N[C@@H](CO)C(=O)N[C@@H](Cc1ccccc1)C(=O)N[C@@H](CCCCN)C(=O)N1CCC[C@H]1C(=O)N[C@@H](CCSC)C(=O)N1CCC[C@H]1C(=O)N[C@@H](CC(C)C)C(=O)N[C@H](C)C(=O)N[C@@H](CCCNC(=N)N)C(=O)O)[C@@H](C)O (H-IPQSLDSWWTSLYSFKPMPL[dA]R-OH)
- % Specific Lysis [1, 5]: 1%
- % Specific Lysis [1, 6]: 2%
- % Specific Lysis [1, 7]: 4%
- % Specific Lysis [1, 8]: 6%
- Ag-specific CTL response (in words) [1]: lack of a CTL response
- EC50 [2]: 1580 nM
- pD2 ± SE [2]: 5.80 ± 0.04
- EC50 [3]: 210 nM
- agonist behaviour relative to natural C5a (in words) [3]: full agonists
- pD2 ± SE [3]: 6.68 ± 0.17

Compound: IPQSLDSWWTSLRR [reference compound]
- % Specific Lysis [1, 5]: 0%
- % Specific Lysis [1, 6]: 1%
- % Specific Lysis [1, 7]: 2%
- % Specific Lysis [1, 8]: 2%
